{
  "source": "patent US9029147B2",
  "about": "“Methods and compositions for enhanced differentiation from embryonic stem cells” (Massachusetts Institute of Technology, priority 2007, dated 2015)",
  "format_in_all_cases": "cell-based, mouse",
  "key": {"mES cells [1]": {"tested_on": "mES cells", "assay": "Adhesion of mES cells to polystyrene and silicone rubber, native or with adsorbed gelatin or fibronectin", "settings": "after a day in culture", "experimental": "FIG. 23. Adhesion of ES cells to polystyrene and silicone rubber. Adhesion of mES cells to polystyrene and silicone rubber in their native states or with 0.1% gelatin in water or […] fibronectin in PBS adsorbed onto the surface for 24 hr prior to cell addition. Below each pair of micrographs is quantitative data for the total, attached, and suspension cell numbers. Results shown are mean±SD for three wells in a 24 well plate seeded with 2×10^5 cell 26 hr prior to performing the cell counts.\nPSS solution (polyanion) was added to an untreated plate and incubated for 1 hr, followed by a 10 min wash with DPBS, a 1 hr incubation with PEI (polycation), and a 10 min wash with DPBS. Two additional incubations with both PSS and PEI (30 min each) with intervening washes (10 min) were done to build a (PSS-PEI)3 PEM. To this PEM an additional 3 layers each of type B gelatin (polyanion) and PDL (polycation) were formed, using 30 min incubations with the polyelectrolyte solution, and 10 min washes with DPBS. The final PEM structure was thus (PSS-PEI)3-(type B gelatin—PDL)3. […] Attached nuclei were counted by adding 0.5 ml of lysis solution to the well and incubating for 10 min. […] The membrane-intact cell concentration was determined using trypan blue cell counts, and cells were diluted to a concentration of 25,000 membrane intact cells/ml. […]"}, "J1 mES cells": {"tested_on": "J1 mES cells", "assay": "Fraction of MF-20 positive cells (cardiomyocytes) by flow cytometry, alternate differentiation protocol", "source_text": "(§1) • Undifferentiated ES cell culture. J1 and R1 ES cells were obtained from ATCC (SCRC 1010, SCRC 1036, Manassaas, Va.), expanded on Mitomycin-C treated MEF cells, and frozen into vials following ATCC protocols. Vials were thawed into undifferentiated ES cell maintenance medium (described in Table 1) containing supplemental leukaemia inhibitory factor (LIF) and plated at a density of about 5×10^4 cell/cm^2 on 25 cm^2 cell culture flasks (353109, Becton Dickinson, Franklin Lakes, N.J.) that were treated for 30 min with a sterile 0.1% (w/v) solution of gelatine (G-2500, Sigma-Aldrich, St. Louis, Mo.) in tissue culture water (WFI, 25-055-CM, Mediatech, Herndon, Va.). Medium (Table 1) was exchanged daily, and cells were detached with 0.25% trypsin (30-2101, ATCC) every two days. Split fractions were chosen so that cells were plated at approximately 1.2^[…] cells/cm^2. Cells were used for differentiation experiments 4-6 days after thawing the cell vials. • EB formation. […] The concentration of cells with intact membranes was determined using trypan blue cell counts, and cells were diluted to a concentration of 2.5×10^4 membrane-intact cells/ml. […] of this cell suspension were aliquoted onto the inside surface of the lids of 10×10 cm Petri dishes (351112, Becton Dickinson) using an 8-channel pipette. The lids were inverted and placed onto the bottoms of the dishes, which were filled with 15 ml of a pre-warmed (37° C.) solution containing 75% (v/v) Dulbecco's phosphate buffered saline (DPBS, 21-030-CM, Mediatech), 25% water, and 0.002% (w/v) gelatine. • EB transfer. […], the resulting EBs were manually pipetted off of the Petri dish lid using wide-orifice pipette tips (3532, Molecular BioProducts, San Diego, Calif.) and placed into the wells of custom-made 24-well culture dish, which had the plastic bottom replaced with fibronectin-coated silicone rubber membrane. 30 EBs were placed into each well, and the medium was mixed by pipetting to distribute the EBs uniformly across the plate bottom. • Culture of attached EBs. The EBs attached and spread within one day of transfer to the silicone rubber membrane-based dish. The medium was removed from all of the wells 2 days after EB transfer and was replaced with 1 ml of fresh ES cell differentiation medium. On the following day, the medium was removed and replaced with 1 ml serum-free differentiation medium (Table 2). Medium continued to be exchanged daily with the serum-free differentiation medium until the end of the experiment. • Cell collection for nuclei counting and flow cytometry. […]"}, "R1 ES cells": {"tested_on": "R1 ES cells", "assay": "Fraction of MF-20 positive cells (cardiomyocytes) by flow cytometry, alternate differentiation protocol", "settings": "With 0.2 mM ascorbic acid", "source_text": "as §1"}, "mES cells [2]": {"tested_on": "mES cells", "assay": "Cardiomyocyte generation with 0 or 0.2 mM ascorbic acid, MF-20 immunostaining counted by flow cytometer", "settings": "10 days", "experimental": "Low Oxygen and Ascorbic Acid Act Synergistically to Promote Cardiomyocyte Generation. mES cells were differentiated for 10 days at 142, 36, and 7 mmHg pO2 and with either 0 or 0.2 mM ascorbic acid. Cardiomyocyte generation was measured by counting fixed cells immunostained for sacromeric myosin heavy chain using the MF-20 with a flow cytometer. […] (FIGS. 10 and 11.)."}},
  "note": "Several values for one entry are separate records, joined by “and”; a condition that tells them apart may be missing. Identical values can stand only once.",
  "data": [
    {"molecule": "fibronectin: protein adsorbed onto silicone rubber to promote cell adhesion (F1141, Sigma-Aldrich)", "values": [
      {"measurement": "Fraction of cells attached", "setting": "mES cells [1]", "result": 99, "unit": "%"}
    ]},
    {"molecule": "O=C1O[C@H]([C@@H](O)CO)C(O)=C1O", "note": "[Ascorbic Acid, L-ascorbic acid]", "values": [
      {"measurement": "Fraction of MF-20 positive cells", "setting": "J1 mES cells; With 0.2 mM ascorbic acid, pO2gas 36, J1, 4 days hanging drop EBs then 7 days serum free ITS medium", "result": "18 and 25 and 16"},
      {"measurement": "Change in fraction of cardiomyocytes when ascorbic acid was included in the culture medium", "setting": "J1 mES cells; all of the oxygen conditions tested, P=0.0005, J1 and R1 experiments of Table 4", "result": "highly significant increase"},
      {"measurement": "Fraction of MF-20 positive cells", "setting": "R1 ES cells; pO2gas 7, 4 days hanging drop EBs then 7 days serum free ITS medium", "result": 4},
      {"measurement": "Fraction of MF-20 positive cells", "setting": "R1 ES cells; pO2gas 36, 4 days hanging drop EBs then 7 days serum free ITS medium", "result": 22},
      {"measurement": "Effect on cardiomyocyte generation in combination with low pO2", "setting": "mES cells [2]; 0.2 mM combined with 36 mmHg pO2", "result": "a larger increase in cardiomyocytes than with either method alone"},
      {"measurement": "Effect on cardiomyocyte generation", "setting": "mES cells [2]; 0.2 mM vs 0 mM, at all pO2 (142, 36, 7 mmHg)", "result": "increased cardiomyocyte generation"}
    ]}
  ]
}
